From patent US20070249560A1, “Hydrolysis resistant organomodified silyated surfactants” (priority 2006, published 2007)

Experiments:
[1] = Surface tension, Kruss surface tensiometer; assay type: physicochemical; settings: 0.1 wt % in 0.005M NaCl water
Protocol: Surface tension was measured using a Kruss surface tensiometer, with a sand blasted platinum blade as the sensor. Solutions of the various components were prepared at 0.1 wt % in 0.005M NaCl water (deionized), as an equilibrium aid.

[2] = Spreading of 10 μL droplet on polystyrene Petri dishes; assay type: physicochemical; settings: 30 seconds
Protocol: Spreading was determined by applying a 10 μL droplet, of surfactant solution to polystyrene Petri dishes (Fisher Scientific) and measuring the spread diameter (mm) after 30 seconds, at a relative humidity between 50 and 70% (at 22 to 25° C.). The solution was applied with an automatic pipette to provide droplets of reproducible volume. Deionized water that was further purified with a Millipore filtration system was used to prepare the surfactant solutions.

C[Si](C)(C)C[Si](C)(C)CCCOCCOCCOCCOCCOCCOCCOCCOCCOCCOCCOCCO [Product 8]
Surface Tension [1]: 27.7 mN/m | Spread Diameter (mm) ([2]; 0.1% weight surfactant): 7 mm | Spread Diameter (mm) ([2]; 0.5% weight surfactant): 7 mm

C[Si](C)(C)CC[Si](C)(C)CCCOCCOCCOCCOCCOCCOCCOCCOCCOCCOCCOCCO [Product 9]
Surface Tension [1]: 26.7 mN/m | Spread Diameter (mm) ([2]; 0.1% weight surfactant): 7 mm | Spread Diameter (mm) ([2]; 0.5% weight surfactant): 7 mm

C[Si](C)(C)C[Si](C)(C)CCCOCCOCCOCCOCCO [Product 6]
Surface Tension [1]: 22.5 mN/m | Spread Diameter (mm) ([2]; 0.05% weight surfactant): 40 mm | Spread Diameter (mm) ([2]; 0.1% weight surfactant): 45 mm | Spread Diameter (mm) ([2]; 0.3% weight surfactant): 53 mm | Spread Diameter (mm) ([2]; 0.5% weight surfactant): 47 mm

Octylphenolethoxylate, containing 10 polyoxyethylene units [OPE, reference compound]
Surface Tension [1]: 31.8 mN/m | Spread Diameter (mm) ([2]; 0.1% weight surfactant): 9 mm | Spread Diameter (mm) ([2]; 0.5% weight surfactant): 10 mm

C[Si](C)(C)CC[Si](C)(C)CCCOCCOCCOCCOCCO [Product 7]
Surface Tension [1]: 22.7 mN/m | Spread Diameter (mm) ([2]; 0.05% weight surfactant): 30 mm | Spread Diameter (mm) ([2]; 0.1% weight surfactant): 42 mm | Spread Diameter (mm) ([2]; 0.3% weight surfactant): 48 mm | Spread Diameter (mm) ([2]; 0.5% weight surfactant): 49 mm
